We go through five compounds from patent US20230173018A1, “CASPOFUNGIN DERIVATIVES AND ASSAYS FOR EVALUATING ANTIFUNGAL TREATMENT EFFICACY” (priority 2020, published 2023).

Holding throughout (type): cell-based
Experiment [1] concerns C. glabrata BG2. The experiment is described as follows: MIC, broth double dilution. The following applies: strain no. 34, C. glabrata BG2. Summed up:
(§1)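 The read-out is the minimal inhibitory concentration, obtained by broth double dilution. The strains tested included some that were made caspofungin-resistant by point mutations near the glucan synthase FKS1/FKS2 hotspots.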

In experiment [2] the test system is C. glabrata ATCC 15126. Nature of the experiment: MIC, broth double dilution. The following applies: strain no. 41, C. glabrata ATCC 15126. In short, it runs like this:
as §1

Experiment [3] has as its system C. glabrata EF1620. Nature of the experiment: MIC, broth double dilution. The conditions noted are these: strain no. 31, C. glabrata EF1620. In short, it runs like this:
as §1

Experiment [4] has as its system C. albicans ATCC 10231. Nature of the experiment: MIC, broth double dilution. The following applies: strain no. 11, C. albicans ATCC 10231. Summed up:
as §1

Experiment [5] has as its system C. albicans BWP17. The experiment is described as follows: MIC, broth double dilution. In short, it runs like this: as §1
Experiment [6] relates to C. albicans SC5314. The experiment is described as follows: MIC, broth double dilution. The conditions noted are these: strain no. 1, C. albicans SC5314, WT. Summed up: as §1
Experiment [7] deals with C. glabrata ATCC 2001. The experiment is described as follows: MIC, broth double dilution. The following applies: strain no. 39, C. glabrata ATCC 2001. Summed up:
as §1

The subject of experiment [8] is C. glabrata ATCC 90030. Nature of the experiment: MIC, broth double dilution. The following applies: strain no. 16, C. glabrata ATCC 90030, WT. Summed up:
as §1

The subject of experiment [9] is C. glabrata T-191 (11-331). Nature of the experiment: MIC, broth double dilution. The conditions noted are these: strain no. 43, T-191 (11-331), clinical isolate. In short, it runs like this: as §1
Experiment [10] deals with C. glabrata T-190 (11-304). The experiment is described as follows: MIC, broth double dilution. The conditions noted are these: strain no. 42, T-190 (11-304), clinical isolate. In short, it runs like this: as §1
Experiment [11] relates to C. glabrata T-193 (11-282). The experiment is described as follows: MIC, broth double dilution. The following applies: strain no. 45, T-193 (11-282), clinical isolate. In short, it runs like this:
as §1

Experiment [12] deals with C. albicans ATCC 24433. Nature of the experiment: MIC, broth double dilution. The conditions noted are these: strain no. 6, C. albicans ATCC 24433. Summed up:
as §1

Experiment [13] deals with C. glabrata CST34. The experiment is described as follows: MIC, broth double dilution. The conditions noted are these: strain no. 21, C. glabrata CST34 (parental). Summed up:
as §1

For experiment [14], the system named is C. glabrata CST109. The experiment is described as follows: MIC, broth double dilution. The conditions noted are these: strain no. 18, C. glabrata CST109 (parental). In short, it runs like this:
as §1

For experiment [15], the system named is panel of 49 C. albicans and C. glabrata strains. Nature of the experiment: Antifungal activity (MIC) compared to caspofungin over the panel. The conditions noted are these: for antifungal activity based on MIC values: panel of 49 strains; for MIC values higher than the parent caspofungin: ratio to caspofungin MIC, FIG. 2, Table 2; for antifungal activity spectrum: resistant vs responsive strains of the panel. An excerpt:
The antifungal activities of compounds 1a, 1 and 2 (collectively: caspofungin derivatives) were compared to that of caspofungin and CSF-BOD using a panel of 49 C. albicans and C. glabrata strains (Tables 1 and 2). The panel included ATCC strains and clinical isolates as well a collection of caspofungin-responsive strains and their corresponding isogenic caspofungin-resistant derivatives, constructed by introducing point mutations within and near the defined hotspots in the FKS1 and/or FKS2 genes of the GS complex. […] MIC values were determined using the broth double-dilution method. The clinical breakpoints (threshold) for caspofungin-resistance in C. albicans and C. glabrata are 1 μg/mL and 0.5 μg/mL, respectively. […]

For experiment [16], the system named is C. albicans CAF2-1. The experiment is described as follows: microbe, parasite or virus in culture. The conditions noted are these: strain no. 10, CAF2-1, parental SC5314. In short, it runs like this: as §1
The mark [17] stands for this setting: strain no. 9, BWP17, parental RM1000.

Structures are written as SMILES. In brackets after ≈: the same amount, converted by molar mass. Like-named read-outs stand apart in the source and are kept apart here.

As for `CC[C@H](C)C[C@H](C)CCCCCCCCC(=O)N[C@H]1C[C@@H](O)[C@@H](NCCN)NC(=O)[C@@H]2[C@@H](O)CCN2C(=O)[C@H]([C@H](O)CCN)NC(=O)[C@H]([C@H](O)[C@@H](O)c2ccc(OCc3cn(CCCNC(=O)c4ccc(-c5c6ccc(=[N+](C)C)cc-6oc6cc(N(C)C)ccc56)c(C(=O)[O-])c4)nn3)cc2)NC(=O)[C@@H]2C[C@@H](O)CN2C(=O)[C@H]([C@@H](C)O)NC1=O` [Compound 1], the MIC in experiment [1] was 1 µg/mL (≈ 0.608 µM); in experiment [2], 1 µg/mL (≈ 0.608 µM); in [3], 0.5 µg/mL (≈ 0.304 µM); in experiment [4], 0.5 µg/mL (≈ 0.304 µM); in [5] (setting [17]), 0.25 µg/mL (≈ 0.152 µM); in experiment [6], 0.25 µg/mL (≈ 0.152 µM). Further, the MIC in experiment [7] worked out at 1 µg/mL (≈ 0.608 µM); in experiment [8] it was 1 µg/mL (≈ 0.608 µM); in experiment [9], 0.5 µg/mL (≈ 0.304 µM); in experiment [10] it was 0.5 µg/mL (≈ 0.304 µM); in experiment [11], 1 µg/mL (≈ 0.608 µM); in experiment [12], 0.5 µg/mL (≈ 0.304 µM). The MIC came out at 0.5 µg/mL (≈ 0.304 µM) in experiment [13], 1 µg/mL (≈ 0.608 µM) in [14] and 0.5 µg/mL (≈ 0.304 µM) in experiment [16]. Further, the “antifungal activity based on MIC values” in [15] is recorded as “retained antifungal activities”. Further, the “MIC values higher than the parent caspofungin” value in experiment [15] is 4-16. Also, in experiment [15], the antifungal activity spectrum result was “identical to that of caspofungin”.

For `CC[C@H](C)C[C@H](C)CCCCCCCCC(=O)N[C@H]1C[C@@H](O)[C@@H](NCCNC(=O)CCc2ccc3n2[B-](F)(F)[N+]2=C(C)C=C(C)C2=C3)NC(=O)[C@@H]2[C@@H](O)CCN2C(=O)[C@H]([C@H](O)CCN)NC(=O)[C@H]([C@H](O)[C@@H](O)c2ccc(O)cc2)NC(=O)[C@@H]2C[C@@H](O)CN2C(=O)[C@H]([C@@H](C)O)NC1=O` [CSF-BOD], the MIC turned out to be 2 µg/mL (≈ 1.46 µM) in experiment [1]; 2 µg/mL (≈ 1.46 µM) in experiment [2]; 1 µg/mL (≈ 0.731 µM) in experiment [3]; 2 µg/mL (≈ 1.46 µM) in experiment [4]; 1 µg/mL (≈ 0.731 µM) in experiment [5] (setting [17]); 1 µg/mL (≈ 0.731 µM) in experiment [6]. For the same compound, the MIC in [7] came out at 1 µg/mL (≈ 0.731 µM); in [8], 2 µg/mL (≈ 1.46 µM); in [9], 1 µg/mL (≈ 0.731 µM); in experiment [10], 1 µg/mL (≈ 0.731 µM); in experiment [11], 1 µg/mL (≈ 0.731 µM); in experiment [12], 2 µg/mL (≈ 1.46 µM). Moreover, the MIC in experiment [13] turned out to be 1 µg/mL (≈ 0.731 µM); in [14] it was 2 µg/mL (≈ 1.46 µM); in experiment [16], 2 µg/mL (≈ 1.46 µM). Further, in [15] (against the responsive strains from the tested panel), the “MIC values higher than those of caspofungin” value was 8-32 fold. Besides, the antifungal activity spectrum entry in experiment [15] was “identical to that of caspofungin”.

Regarding `CC[C@H](C)C[C@H](C)CCCCCCCCC(=O)N[C@H]1C[C@@H](O)[C@@H](NCCN)NC(=O)[C@@H]2[C@@H](O)CCN2C(=O)[C@H]([C@H](O)CCN)NC(=O)[C@H]([C@H](O)[C@@H](O)c2ccc(OCc3cn(CCCNc4ccc([N+](=O)[O-])c5nonc45)nn3)cc2)NC(=O)[C@@H]2C[C@@H](O)CN2C(=O)[C@H]([C@@H](C)O)NC1=O` [Compound 2], the MIC in [1] was determined as 4 µg/mL (≈ 2.87 µM); in experiment [2], 4 µg/mL (≈ 2.87 µM); in experiment [3] it was 2 µg/mL (≈ 1.43 µM); in experiment [4], 2 µg/mL (≈ 1.43 µM); in experiment [5] (setting [17]), 1 µg/mL (≈ 0.717 µM); in experiment [6], 1 µg/mL (≈ 0.717 µM). The MIC in experiment [7] turned out to be 2 µg/mL (≈ 1.43 µM); in [8], 4 µg/mL (≈ 2.87 µM); in experiment [9], 2 µg/mL (≈ 1.43 µM); in experiment [10] it was 2 µg/mL (≈ 1.43 µM); in [11], 4 µg/mL (≈ 2.87 µM); in [12], 1 µg/mL (≈ 0.717 µM). For the same compound, the values for the MIC in [13], in experiment [14] and in [16] were 4 µg/mL (≈ 2.87 µM), 4 µg/mL (≈ 2.87 µM) and 1 µg/mL (≈ 0.717 µM), respectively. For the same compound, in experiment [15], the “antifungal activity based on MIC values” is listed as “retained antifungal activities”. The “MIC values higher than the parent caspofungin” value in experiment [15] is reported as 16-16. Further, the antifungal activity spectrum result in [15] is listed as “identical to that of caspofungin”.

For the compound `C#CCOc1ccc([C@H](O)[C@@H](O)[C@@H]2NC(=O)[C@@H]3C[C@@H](O)CN3C(=O)[C@H]([C@@H](C)O)NC(=O)[C@@H](NC(=O)CCCCCCCC[C@@H](C)C[C@@H](C)CC)C[C@@H](O)[C@@H](NCCN)NC(=O)[C@@H]3[C@@H](O)CCN3C(=O)[C@H]([C@H](O)CCN)NC2=O)cc1` [Compound 1a], the MIC in experiment [1] is 0.5 µg/mL (≈ 0.442 µM); in experiment [2], 1 µg/mL (≈ 0.884 µM); in [3], 0.5 µg/mL (≈ 0.442 µM); in [4] it was 0.125 µg/mL (≈ 0.11 µM); in [5] (setting [17]), 0.063 µg/mL (≈ 0.0557 µM); in experiment [6], 0.125 µg/mL (≈ 0.11 µM). The MIC in experiment [7] is 0.5 µg/mL (≈ 0.442 µM); in [8] it was 1 µg/mL (≈ 0.884 µM); in experiment [9], 0.25 µg/mL (≈ 0.221 µM); in experiment [10] it was 0.5 µg/mL (≈ 0.442 µM); in experiment [11], 1 µg/mL (≈ 0.884 µM); in [12], 0.125 µg/mL (≈ 0.11 µM). Besides, the MIC in experiment [13] is 0.25 µg/mL (≈ 0.221 µM); in experiment [14], 1 µg/mL (≈ 0.884 µM). For the same compound, the “antifungal activity based on MIC values” in [15] is reported as “retained antifungal activities”. Moreover, the “MIC values higher than the parent caspofungin” value in experiment [15] is reported as 1-8.

As to `CN(C)c1ccc2c(-c3ccc(C(=O)NCCCN=[N+]=[N-])cc3C(=O)[O-])c3ccc(=[N+](C)C)cc-3oc2c1` [Compound 5-TMR-azide], the MIC in [1], in [2], in experiment [3], in experiment [4], in experiment [5] and in experiment [6] was more than 64 µg/mL in each case. In addition, the MIC in [7], in experiment [8], in experiment [9], in experiment [10], in experiment [11] and in experiment [12] was more than 64 µg/mL in each case. The MIC in [13], in experiment [14] and in [16] was more than 64 µg/mL each time.
